These compounds were tested against p53-MDM2 interaction (GST-MDM2 protein aa 23-117 / biotinylated p53 wt peptide) (Homo sapiens (Human), UniProt Q00987) (assay: Mdm2-p53 Inhibition AlphaScreen). Conditions: GST-MDM2 (aa 23-117) / biotinylated p53 wt peptide.
Format: binding
Protocol: Mdm2-p53 Inhibition AlphaScreen
15 μL of compound in 20% DMSO (serial pre-dilutions of compound are done in 100% DMSO) is pipetted to the wells of a white OptiPlate-96 (Perkin Elmer). A mix consisting of 20 nM GST-MDM2 protein (aa 23-117) and 20 nM biotinylated p53 wt peptide (encompassing aa 16-27 of wt human p53, amino acid sequence […]-Ttds-Lys-Biotin, molecular weight 2132.56 g/mol) is prepared in assay buffer (50 mM Tris/HCl pH 7.2; 120 mM NaCl; 0.1% bovine serum albumin (BSA); 5 mM dithiothreitol (DTT); 1 mM ethylenediaminetetraacetic acid (EDTA); 0.01% Tween 20). 30 μL of the mix is added to the compound dilutions and incubated for 15 min at rt while gently shaking the plate at 300 rounds per minute (rpm). Subsequently, 15 μL of premixed AlphaLISA Glutathione Acceptor Beads and AlphaScreen Streptavidin Donor Beads from PerkinElmer (in assay buffer at a concentration of 10 μg/mL each) are added and the samples are incubated for 30 min at rt in the dark (shaking 300 rpm). Afterwards, the signal is measured in a PerkinElmer Envision HIS Multilabel Reader using the AlphaScreen protocol from Perkin Elmer.
Each plate contains negative controls where biotinylated p53-peptide and GST-MDM2 are left out and replaced by assay buffer. Negative control values are entered as low basis value when using the software GraphPad Prism for calculations. Furthermore, a positive control (5% DMSO instead of test compound; with protein/peptide mix) is pipetted. Determination of IC50 values are carried out using GraphPad Prism 3.03 software (or updates thereof).

p53-MDM2 interaction (GST-MDM2 protein aa 23-117 / biotinylated p53 wt peptide), sequence (Q00987 23-117): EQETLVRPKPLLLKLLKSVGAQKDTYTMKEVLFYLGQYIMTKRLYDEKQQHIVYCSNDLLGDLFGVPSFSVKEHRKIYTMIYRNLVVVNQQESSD

SMILES | IC50
O=C(O)c1ccc2c(c1)nc1n2CC[C@H]2[C@@H]1[C@H](c1cccc(Cl)c1F)[C@]1(C(=O)Nc3cc(Cl)ccc31)N2CC1CCCC1 [Ib-135] | 15 nM
O=C(O)c1ccc2c(c1)nc1n2CC[C@H]2[C@@H]1[C@H](c1cccc(Cl)c1F)[C@]1(C(=O)Nc3cc(Cl)ccc31)N2CC1CCCCC1 [Ib-137] | 34 nM
CCOc1cccc(CN2[C@H]3CCn4c(nc5cc(C(=O)O)ccc54)[C@H]3[C@H](c3cccc(Cl)c3F)[C@]23C(=O)Nc2cc(Cl)ccc23)c1 [Ib-139] | 4 nM
CCOc1cccc(CN2[C@H]3CCn4c(nc5cc(C(=O)O)ccc54)[C@H]3[C@H](c3cccc(Cl)c3F)[C@]23C(=O)Nc2cc(Cl)ccc23)c1 [Ib-140] | 2 nM
CCOc1cccc(CN2[C@@H]3CCn4c(nc5cc(C(=O)O)ccc54)[C@@H]3[C@@H](c3cccc(Cl)c3F)[C@@]23C(=O)Nc2cc(Cl)ccc23)c1 [Ib-141] | 48 nM
COCc1cccc(CN2[C@H]3CCn4c(nc5cc(C(=O)O)ccc54)[C@H]3[C@H](c3cccc(Cl)c3F)[C@]23C(=O)Nc2cc(Cl)ccc23)c1 [Ib-142] | 3 nM
COc1cccc(CCN2[C@H]3CCn4c(nc5cc(C(=O)O)ccc54)[C@H]3[C@H](c3cccc(Cl)c3F)[C@]23C(=O)Nc2cc(Cl)ccc23)c1 [Ib-144] | 8 nM
O=C(O)c1ccc2c(c1)nc1n2CC[C@H]2[C@@H]1[C@H](c1cccc(Cl)c1F)[C@]1(C(=O)Nc3cc(Cl)ccc31)N2CCC(F)(F)F [Ib-146] | 11 nM
N#CC12CC(CN3[C@H]4CCn5c(nc6cc(C(=O)O)ccc65)[C@H]4[C@H](c4cccc(Cl)c4F)[C@]34C(=O)Nc3cc(Cl)ccc34)(C1)C2 [Ib-148] | 21 nM
CC(C)(C)CN1[C@H]2CCn3c(nc4cc(C(=O)O)ccc43)[C@H]2[C@H](c2cccc(Cl)c2F)[C@]12C(=O)Nc1cc(Cl)ccc12 [Ib-150] | 20 nM
N#Cc1ccc2c(c1)NC(=O)[C@]21[C@@H](c2cccc(Cl)c2F)[C@@H]2c3nc4cc(C(=O)O)ccc4n3CC[C@@H]2N1CC1CC1 [Ib-152] | 7 nM
O=C(O)c1ccc2nc3n(c2c1)CC[C@H]1[C@@H]3[C@H](c2cccc(Cl)c2F)[C@]2(C(=O)Nc3cc(Cl)ccc32)N1CC1CC1 [Ib-154] | 3 nM
O=C(O)c1ccc2nc3n(c2c1)CC[C@H]1[C@@H]3[C@H](c2cccc(Cl)c2F)[C@]2(C(=O)Nc3cc(Cl)ccc32)N1CC1CC1 [Ib-155] | 2 nM
O=C(O)c1cccc2nc3n(c12)CC[C@H]1[C@@H]3[C@H](c2cccc(Cl)c2F)[C@]2(C(=O)Nc3cc(Cl)ccc32)N1CC1CC1 [Ib-156] | 5 nM
COc1cc2c(cc1C(=O)O)nc1n2CC[C@H]2[C@@H]1[C@H](c1cccc(Cl)c1F)[C@]1(C(=O)Nc3cc(Cl)ccc31)N2CC1CC1 [Ib-157] | 2 nM
O=C(O)c1cc2nc3n(c2cc1OC(F)(F)F)CC[C@H]1[C@@H]3[C@H](c2cccc(Cl)c2F)[C@]2(C(=O)Nc3cc(Cl)ccc32)N1CC1CC1 [Ib-158] | 3 nM
Cc1cc2c(cc1C(=O)O)nc1n2CC[C@H]2[C@@H]1[C@H](c1cccc(Cl)c1F)[C@]1(C(=O)Nc3cc(Cl)ccc31)N2CC1CC1 [Ib-159] | 7 nM
Cc1c(C(=O)O)ccc2c1nc1n2CC[C@H]2[C@@H]1[C@H](c1cccc(Cl)c1F)[C@]1(C(=O)Nc3cc(Cl)ccc31)N2CC1CC1 [Ib-160] | 4 nM
Cc1cc2c(nc3n2CC[C@H]2[C@@H]3[C@H](c3cccc(Cl)c3F)[C@]3(C(=O)Nc4cc(Cl)ccc43)N2CC2CC2)c(C)c1C(=O)O [Ib-161] | 11 nM
CC(C)c1cc2c(cc1C(=O)O)nc1n2CC[C@H]2[C@@H]1[C@H](c1cccc(Cl)c1F)[C@]1(C(=O)Nc3cc(Cl)ccc31)N2CC1CC1 [Ib-162] | 6 nM
O=C(O)c1cc2nc3n(c2cc1F)CC[C@H]1[C@@H]3[C@H](c2cccc(Cl)c2F)[C@]2(C(=O)Nc3cc(Cl)ccc32)N1CC1CC1 [Ib-163] | 2 nM
O=C(O)c1cc2nc3n(c2cc1C(F)(F)F)CC[C@H]1[C@@H]3[C@H](c2cccc(Cl)c2F)[C@]2(C(=O)Nc3cc(Cl)ccc32)N1CC1CC1 [Ib-164] | 3 nM
O=C(O)C1(c2ccc3c(c2)nc2n3CC[C@H]3[C@@H]2[C@H](c2cccc(Cl)c2F)[C@]2(C(=O)Nc4cc(Cl)ccc42)N3CC2CC2)CC1 [Ib-165] | 28 nM
CC(C)(C(=O)O)c1ccc2c(c1)nc1n2CC[C@H]2[C@@H]1[C@H](c1cccc(Cl)c1F)[C@]1(C(=O)Nc3cc(Cl)ccc31)N2CC1CC1 [Ib-167] | 22 nM
O=C(O)Cc1ccc2c(c1)nc1n2CC[C@H]2[C@@H]1[C@H](c1cccc(Cl)c1F)[C@]1(C(=O)Nc3cc(Cl)ccc31)N2CC1CC1 [Ib-169] | 7 nM

SMILES | IC50
O=C(O)c1ccc2c(c1)nc1n2CC[C@H]2[C@@H]1[C@H](c1cccc(Cl)c1F)[C@]1(C(=O)Nc3nc(Cl)ccc31)N2CC1CC1 [Ib-171] | 10 nM
CCOc1cccc(CN2[C@H]3CCn4c(nc5cc(C(=O)O)ccc54)[C@H]3[C@H](c3cccc(Cl)c3F)[C@]23C(=O)Nc2nc(Cl)ccc23)c1 [Ib-173] | 7 nM
O=C(O)c1ccc2c(c1)nc1n2C[C@H]2[C@@H]1[C@H](c1cccc(Cl)c1F)[C@]1(C(=O)Nc3cc(Cl)ccc31)N2CC1CC1 [Ib-175] | 3 nM
O=C(O)c1ccc2c(c1)nc1n2C[C@H]2[C@@H]1[C@H](c1cccc(Cl)c1F)[C@]1(C(=O)Nc3cc(Cl)ccc31)N2CC1CC1 [Ib-176] | 2 nM
O=C(O)c1ccc2c(c1)nc1n2C[C@@H]2[C@H]1[C@@H](c1cccc(Cl)c1F)[C@@]1(C(=O)Nc3cc(Cl)ccc31)N2CC1CC1 [Ib-177] | 53 nM
O=C(O)c1ccc2nc3n(c2c1)C[C@H]1[C@@H]3[C@H](c2cccc(Cl)c2F)[C@]2(C(=O)Nc3cc(Cl)ccc32)N1CC1CC1 [Ib-178] | 4 nM
O=C(O)c1ccc2nc3n(c2c1)C[C@H]1[C@@H]3[C@H](c2cccc(Cl)c2F)[C@]2(C(=O)Nc3cc(Cl)ccc32)N1CC1CC1 [Ib-179] | 2 nM
O=C(O)c1ccc2nc3n(c2c1)C[C@@H]1[C@H]3[C@@H](c2cccc(Cl)c2F)[C@@]2(C(=O)Nc3cc(Cl)ccc32)N1CC1CC1 [Ib-180] | 83 nM
COCc1cccc(CN2[C@H]3Cn4c(nc5cc(C(=O)O)ccc54)[C@H]3[C@H](c3cccc(Cl)c3F)[C@]23C(=O)Nc2cc(Cl)ccc23)c1 [Ib-183] | 3 nM
COCc1cccc(CN2[C@H]3Cn4c(nc5cc(C(=O)O)ccc54)[C@H]3[C@H](c3cccc(Cl)c3F)[C@]23C(=O)Nc2cc(Cl)ccc23)c1 [Ib-184] | 2 nM
COCc1cccc(CN2[C@@H]3Cn4c(nc5cc(C(=O)O)ccc54)[C@@H]3[C@@H](c3cccc(Cl)c3F)[C@@]23C(=O)Nc2cc(Cl)ccc23)c1 [Ib-185] | 14 nM
COc1cccc(CCN2[C@H]3Cn4c(nc5cc(C(=O)O)ccc54)[C@H]3[C@H](c3cccc(Cl)c3F)[C@]23C(=O)Nc2cc(Cl)ccc23)c1 [Ib-186] | 4 nM
Cc1cc2c(cc1C(=O)O)nc1n2C[C@H]2[C@@H]1[C@H](c1cccc(Cl)c1F)[C@]1(C(=O)Nc3cc(Cl)ccc31)N2CC1CC1 [Ib-188] | 3 nM
Cc1c(C(=O)O)ccc2c1nc1n2C[C@H]2[C@@H]1[C@H](c1cccc(Cl)c1F)[C@]1(C(=O)Nc3cc(Cl)ccc31)N2CC1CC1 [Ib-189] | 3 nM
Cc1c(C(=O)O)ccc2c1nc1n2C[C@H]2[C@@H]1[C@H](c1cccc(Cl)c1F)[C@]1(C(=O)Nc3cc(Cl)ccc31)N2CC1CC1 [Ib-190] | 2 nM
CCN1[C@H]2Cn3c(nc4cc(C(=O)O)c(C)cc43)[C@H]2[C@H](c2cccc(Cl)c2F)[C@]12C(=O)Nc1cc(Cl)ccc12 [Ib-191] | 6 nM
O=C(O)c1ccc2c(nc3n2C[C@H]2[C@@H]3[C@H](c3cccc(Cl)c3F)[C@]3(C(=O)Nc4cc(Cl)ccc43)N2CC2CC2)c1C(F)(F)F [Ib-193] | 3 nM
O=C(O)c1cc2nc3n(c2cc1C(F)(F)F)C[C@H]1[C@@H]3[C@H](c2cccc(Cl)c2F)[C@]2(C(=O)Nc3cc(Cl)ccc32)N1CC1CC1 [Ib-195] | 6 nM
O=C(O)c1cc2nc3n(c2cc1OC(F)(F)F)C[C@H]1[C@@H]3[C@H](c2cccc(Cl)c2F)[C@]2(C(=O)Nc3cc(Cl)ccc32)N1CC1CC1 [Ib-197] | 2 nM
O=C(O)c1ccc2c(c1)nc1n2C[C@H]2[C@@H]1[C@H](c1cccc(Br)c1F)[C@]1(C(=O)Nc3cc(Cl)ccc31)N2CC1CC1 [Ib-198] | 4 nM
O=C(O)c1ccc2c(c1)nc1n2C[C@H]2[C@@H]1[C@H](c1cc(Cl)cs1)[C@]1(C(=O)Nc3cc(Cl)ccc31)N2CC1CC1 [Ib-200] | 3 nM
O=C(O)c1ccc2c(c1)nc1n2C[C@H]2[C@@H]1[C@H](c1ccc(Cl)s1)[C@]1(C(=O)Nc3cc(Cl)ccc31)N2CC1CC1 [Ib-202] | 7 nM
Cc1c(C(=O)O)ccc2nc3n(c12)CC[C@H]1[C@@H]3[C@H](c2cccc(Cl)c2F)[C@]2(C(=O)Nc3cc(Cl)ccc32)N1CC1CC1 [Ib-204] | 2 nM
Cc1cc(C(=O)O)cc2c1nc1n2CC[C@H]2[C@@H]1[C@H](c1cccc(Cl)c1F)[C@]1(C(=O)Nc3cc(Cl)ccc31)N2CC1CC1 [Ib-205] | 3 nM
Cc1c(C(=O)O)ccc2nc3n(c12)CC[C@H]1[C@@H]3[C@H](c2cccc(Cl)c2F)[C@]2(C(=O)Nc3cc(Cl)ccc32)N1CC1CC1 [Ib-206] | 4 nM

From patent publication US10717742B2, “Spiro[3H-indole-3,2′-pyrrolidin]-2(1H)-one compounds and derivatives as MDM2-P53 inhibitors” (Boehringer Ingelheim International GmbH, priority 2015, dated 2020)
